Values quoted from earlier work in US6699871B2, “Beta-amino heterocyclic dipeptidyl peptidase inhibitors for the treatment or prevention of diabetes” (Merck & Co., Inc., priority 2001, dated 2004).

Tests used:
DP-IV = biological target: T1, DP-IV (Homo sapiens, UniProt P27487)
T1 construct: GRF is rapidly degraded in plasma to GRF[3-44]

hematopoiesis = conditions: mouse, cyclophosphamide-induced neutropenia

T1 sequence (P27487 whole entry): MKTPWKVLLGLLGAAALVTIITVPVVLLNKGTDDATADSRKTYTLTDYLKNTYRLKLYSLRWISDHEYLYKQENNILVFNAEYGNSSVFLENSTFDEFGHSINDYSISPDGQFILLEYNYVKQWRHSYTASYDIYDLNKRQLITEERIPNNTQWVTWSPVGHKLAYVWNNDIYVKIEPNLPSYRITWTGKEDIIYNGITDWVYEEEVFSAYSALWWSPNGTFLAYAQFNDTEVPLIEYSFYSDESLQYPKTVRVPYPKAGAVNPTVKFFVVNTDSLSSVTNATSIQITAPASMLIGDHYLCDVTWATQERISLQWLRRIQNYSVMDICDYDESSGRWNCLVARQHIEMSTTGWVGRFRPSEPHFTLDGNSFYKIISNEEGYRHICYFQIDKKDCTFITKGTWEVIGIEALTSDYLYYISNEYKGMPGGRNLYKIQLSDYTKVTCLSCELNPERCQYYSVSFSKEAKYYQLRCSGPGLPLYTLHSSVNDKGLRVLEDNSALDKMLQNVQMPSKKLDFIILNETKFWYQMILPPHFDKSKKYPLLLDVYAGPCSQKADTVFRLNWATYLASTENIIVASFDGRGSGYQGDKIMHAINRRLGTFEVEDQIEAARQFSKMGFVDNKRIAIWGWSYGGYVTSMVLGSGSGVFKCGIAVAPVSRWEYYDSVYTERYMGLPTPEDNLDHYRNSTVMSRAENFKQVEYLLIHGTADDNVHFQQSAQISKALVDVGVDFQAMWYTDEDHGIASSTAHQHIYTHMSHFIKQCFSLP

| Structure (SMILES) | degradation of GRF in plasma to GRF[3-44] (DP-IV) | effect on hematopoiesis (hematopoiesis) |
| --- | --- | --- |
| CC[C@H](C)[C@H](N)C(=O)N1CCC[C@H]1C(=O)N[C@H](C(=O)O)[C@@H](C)CC [diprotin A] | prevented | – |
| CC(C)[C@H](N)C(=O)N1CCC[C@H]1B(O)O [Val-Boro-Pro] | – | stimulated hematopoiesis |
